Measurements from patent US10202347B2, “Compound, production method therefor, and use of said compound” (MICROBIAL CHEMISTRY RESEARCH FOUNDATION, priority 2013, dated 2019).
Where two headings read alike, the source gives them in different places.

Tests used:
[1] = test system: Enterococcus faecalis JCM5803 strain; assay: Measurement of MIC for Enterococcus faecalis; type: cell-based; settings: read-out: MIC Enterococcus faecalis JCM5803
Protocol: Each of the above compounds was measured for minimum inhibitory concentration (MIC) for Enterococcus faecalis.
Enterococcus faecalis JCM5803 strain was cultured under shaking in a heart infusion broth medium (product of Becton, Dickinson Co.) at 37° C. overnight.
After completion of the culturing, the culture was diluted with the heart infusion broth medium so that the bacteria were 2×10^4 CFU/mL to 9×10^4 CFU/mL.
Each of the test samples (each of the above compounds, clarithromycin, and ampicillin) was prepared with the heart infusion broth medium to have a concentration of 256 mg/L. From this concentration, the test sample was 2-fold diluted serially in 11 steps to 0.125 mg/L.
The above-diluted culture was added at 50 μL/well to 50 μL/well of the heart infusion broth medium containing each of the test samples at the above concentrations, and was statically cultured at 37° C. for 18 hours.
(§1) After completion of the culturing, the presence or absence of proliferation of each bacterium was visually determined based on turbidity, and the MIC for each bacterial strain was obtained.

[2] = test system: human stomach cancer cells MKN-74; assay: Cell proliferation test, monoculture test (GFP fluorescence); type: cell-based
Protocol: Human stomach cancer cells MKN-74 (Riken Cell Bank) were cultured at 37° C. and 5% CO2 in DMEM supplemented with 10% FBS (product of GIBCO Co.), 100 units/mL penicillin G (product of Invitrogen Co.), and 100 μg/mL streptomycin (product of Invitrogen Co.).
The above cancer cells were allowed to undergo gene transfer of Green fluorescence protein (GFP) expression vector, pEGFP-C1 (product of BD Biosciences Co.) using the Lipofectamine reagent (product of Invitrogen Co.), to thereby clone cells stably expressing GFP.
Only DMEM containing 1% dialyzed serum, 5 μg/mL insulin, 5 μg/mL transferrine (product of Wako Pure Chemical Industries Co.), and 1.4 μM hydrocortisone (product of Sigma Co.) was placed in a 96-well plate at 0.1 mL/well, and respective evaluation samples (the compounds expressed by Structural Formulas (1) to (13)) were added thereto at respective concentrations, followed by maintaining at 37° C. and 5% CO2 for 2 days.
Next, the above human stomach cancer cells MKN-74 were dispersed in DMEM at 5×10^5 cells/mL, and were placed in the above plate at 10 μL/well, followed by further coculturing at 37° C. and 5% CO2 for 3 days.
Measurement of cell proliferation rates in the above coculture test and monoculture test was performed in the following manner.
The medium was removed from the wells of the above plate, and a cytolysis liquid (10 mM Tris-HCl [pH 7.4], 150 mM NaCl, 0.9 mM CaCl2, and 1% Triton X-100) was added thereto at 0.1 mL/well to lyse the cells. The fluorescence intensity of GFP was measured at an excitation wavelength of 485 nm and a fluorescence wavelength of 538 nm, and the cell proliferation rates were calculated from the following formula. Cell proliferation rate (%)=(Fluorescence intensity in the presence of the evaluation sample/Fluorescence intensity in the absence of the evaluation sample)×100

[3] = test system: Staphylococcus aureus FDA209P strain; assay: Measurement of MIC for Staphylococcus aureus; type: cell-based; settings: read-out: MIC Staphylococcus aureus FDA209P
Protocol: Each of the above compounds was measured for minimum inhibitory concentration (MIC) for Staphylococcus aureus and Escherichia coli.
Staphylococcus aureus FDA209P strain and Escherichia coli K-12 strain each were cultured under shaking in a nutrient broth medium (polypeptone (product of NIHON PHARMACEUTICAL Co.) 1%, fish extract for bacteria (product of KYOKUTO PHARMACEUTICAL INDUSTRIAL Co.) 1%, and sodium chloride 0.2%) at 37° C. overnight.
After completion of the culturing, the culture was diluted with the nutrient broth medium so that the bacteria were 2×10^6 CFU/mL to 9×10^6 CFU/mL.
Each of the test samples (each of the above compounds, clarithromycin, and ampicillin) was prepared with the nutrient broth medium to have a concentration of 256 mg/L. From this concentration, the test sample was 2-fold diluted serially in 11 steps to 0.125 mg/L.
The above-diluted culture was added at 50 μL/well to 50 μL/well of the nutrient broth medium containing each of the test samples at the above concentrations, and was statically cultured at 37° C. overnight. After completion of the culturing, the presence or absence of proliferation of each bacterium was visually determined based on turbidity, and the MIC for each bacterial strain was obtained.

[4] = test system: H. influenza ARD476 strain; assay: Measurement of MIC for H. influenza ARD476; type: cell-based; settings: Haemophilus influenzae, ARD476STRAIN, read-out: MIC H. influenzae ARD476
Protocol: (§2) Each of the above compounds was measured for minimum inhibitory concentration (MIC) for Haemophilus influenza.
(§3) Haemophilus influenza T-196 strain and H. influenza ARD476 strain each were statically cultured in a HI medium (Muller Hinton medium (product of Becton, Dickinson Co.) supplemented with 5% Fildes enrichment (product of Becton, Dickinson Co.)) at 37° C. overnight under aerobic conditions containing 5% carbon dioxide gas.
(§4) After completion of the culturing, the culture was suspended with the HI medium and diluted so that each Haemophilus influenza strain was 2×10^6 CFU/mL to 9×10^6 CFU/mL.
(§5) Each of the test samples (each of the above compounds, clarithromycin, and ampicillin) was prepared with the HI medium to have a concentration of 256 mg/L. From this concentration, the test sample was 2-fold diluted serially in 11 steps to 0.125 mg/L.
(§6) The above-diluted culture was added at 50 μL/well to 50 μL/well of the HI medium containing each of the test samples at the above concentrations, and was statically cultured for 18 hours at 37° C. under aerobic conditions containing 5% carbon dioxide gas.
as §1

[5] = test system: Haemophilus influenza T-196 strain; assay: Measurement of MIC for Haemophilus influenza T-196; type: cell-based; settings: read-out: MIC Haemophilus influenzae T-196
Protocol: as §2, §3, §4, §5, §6, §1

[6] = Acute toxicity test (maximum tolerated dose); settings: female, ICR, mouse, in vivo, iv
Text: ICR mice (female, 4 weeks old, product of Charles River Co.) were bred under the SPF conditions.
One half of the administration dose at which the mice were recognized to be dead or have serious toxicity for the observation period of 2 weeks was defined as the maximum tolerated dose (MTD) in the present experiment.

[7] = JCM5803, heart infusion broth medium, 37° C., 18 hours
[8] = monoculture test, MKN-74 alone, cell proliferation rate, average of duplicate, read-out: Mono IC50
[9] = nutrient broth medium, 37° C. overnight
[10] = HI medium, 18 hours, 37° C., 5% carbon dioxide
[11] = intravenous administration, ICR mice, observed for 2 weeks, one half of the dose with death or serious toxicity, read-out: MTD

Row | Structure (SMILES) | MIC [1, 7] [µg/mL] | IC50 [2, 8] [µg/mL] | MIC [3, 9] [µg/mL] | MIC [4, 10] [µg/mL] | MIC [5, 10] [µg/mL] | MTD at 2 weeks ([6]; MTD) [mg/kg] | MIC [3] [µg/mL] | MTD at 2 weeks [6, 11] [mg/kg] | MIC ([1]; JCM5803, 18 h) [µg/mL] | MIC ([4]; 18 h) [µg/mL] | MIC ([5]; 18 h) [µg/mL] | IC50 ([2]; MKN-74, read-out: Mono IC50) [µg/mL]
1 | CCCCCCCCc1nc2ccccc2c(OCC(=O)O)c1C [Structural Formula (2)] | > 128 | 2.95 | > 128 | 64 | 64 | ≥ 50 |  |  |  |  |  | 
2 | Cc1c(CCCC/C=C/C(C)C)[nH]c2ccccc2c1=O [Structural Formula (3)] | > 128 | > 100 |  | > 128 | > 128 |  | > 128 | 1.56 |  |  |  | 
3 | Cc1c(CC(C)C)[nH]c2ccccc2c1=O [Structural Formula (4)] | > 128 | > 100 |  | 128 | 64 | 25 | 128 |  |  |  |  | 
4 | CCCCCCCCc1c(C)c(=O)c2ccccc2n1CC(=O)OC [Structural Formula (5)] | > 128 | > 100 |  | > 128 | > 128 | 6.25 | > 128 |  |  |  |  | 
5 | CCCCCCCCc1c(C)c(=O)c2ccccc2n1CC(=O)O [Structural Formula (6)] | > 128 | 71 |  | 128 | 128 | ≥ 50 | 128 |  |  |  |  | 
6 | CCCCCCCc1c(C)c(=O)c2ccccc2n1CN=C=S [Structural Formula (11)] |  | 89.5 | 4 |  |  |  |  | 6.25 | > 128 | > 128 | > 128 | 
7 | CCCCCCCc1c(C)c(=O)c2ccccc2n1CNC(=S)SC [Structural Formula (12)] | > 128 |  |  | > 128 | > 128 |  | > 128 | ≥ 50 |  |  |  | 39.5
8 | CCCCCCCc1c(C)c(=O)c2ccccc2n1CN=C(SC)SC [Structural Formula (13)] | > 128 |  |  | > 128 | > 128 |  | 4 | ≥ 50 |  |  |  | 1.36
